Where two headings read alike, the source gives them in different places.
Legend:
Cell Necrosis = experiment: Cell necrosis assay / cell viability assay (necrosis inhibitor activity); format: cell-based
Human RIP1 kinase = molecular target: T1, Human RIP1 kinase (Homo sapiens, UniProt Q13546); experiment: Human RIP1 kinase assay; format: biochemical; conditions: representative, exemplary data
T1 sequence (Q13546 1-671): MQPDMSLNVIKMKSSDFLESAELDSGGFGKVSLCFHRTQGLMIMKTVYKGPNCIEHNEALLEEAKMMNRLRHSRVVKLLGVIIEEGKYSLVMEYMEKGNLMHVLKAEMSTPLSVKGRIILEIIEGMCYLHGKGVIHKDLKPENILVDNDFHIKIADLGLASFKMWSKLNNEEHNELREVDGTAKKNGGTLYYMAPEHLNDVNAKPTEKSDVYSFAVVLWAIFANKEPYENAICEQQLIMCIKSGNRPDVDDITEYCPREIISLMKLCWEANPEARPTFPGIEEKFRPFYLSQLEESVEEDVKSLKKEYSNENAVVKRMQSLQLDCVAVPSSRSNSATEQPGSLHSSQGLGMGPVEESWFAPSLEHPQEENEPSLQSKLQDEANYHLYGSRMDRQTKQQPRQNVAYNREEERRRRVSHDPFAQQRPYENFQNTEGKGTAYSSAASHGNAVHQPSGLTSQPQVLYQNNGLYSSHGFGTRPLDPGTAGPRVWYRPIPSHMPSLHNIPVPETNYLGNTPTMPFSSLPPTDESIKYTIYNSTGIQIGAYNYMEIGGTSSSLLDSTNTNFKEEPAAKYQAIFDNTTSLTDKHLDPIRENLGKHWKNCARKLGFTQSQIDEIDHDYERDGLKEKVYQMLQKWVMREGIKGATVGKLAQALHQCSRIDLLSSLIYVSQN

[1] = necrosis inhibitor activity, EC data for 14-191 extrapolated, read-out: EC50
[2] = representative, exemplary data, read-out: Cell viability assay, EC50

Row | IC50 (Human RIP1 kinase) | Structure (SMILES) | EC50 (Cell Necrosis; [1]) | EC50 (Cell Necrosis; [2]) | EC50 (Cell Necrosis; necrosis inhibitor activity, compounds outside 14-191, read-out: EC50)
1 | < 100 nM | O=C(N1CC[C@@H](Oc2ccccc2)C1)N1N=CCC1c1ccccc1 (single isomer, unassigned) [Compound 26A] | 1 to 1000 nM | 1 to 1000 nM | –
2 | < 100 nM | NC(=O)c1csc(OC2CN(C(=O)N3N=CCC3c3cc(F)cc(F)c3)C2)n1 (stereo not drawn) [Compound 132, 2-((1-(5-(3,5-difluorophenyl)-4,5-dihydro-1H-pyrazole-1-carbonyl)azetidin-3-yl)oxy)thiazole-4-carboxamide] | 1 to 1000 nM | 1 to 100 nM | –
3 | < 100 nM | O=C(N1CC(Oc2ccc(F)cc2F)C1)N1OCC[C@H]1c1ccccc1 [Compound 80, (S)-(3-(2,4-difluorophenoxy)azetidin-1-yl)(3-phenylisoxazolidin-2-yl)methanone] | 1 to 1000 nM | 1 to 100 nM | –
4 | < 100 nM | O=C(N1CC(Oc2ccc(F)cc2F)C1)N1N=CCC1c1cc(F)cc(F)c1 (stereo not drawn) [Compound 76, (3-(2,4-difluorophenoxy)azetidin-1-yl)(5-(3,5-difluorophenyl)-4,5-dihydro-1H-pyrazol-1-yl)methanone] | 1 to 1000 nM | 1 to 100 nM | –
5 | ~1000 nM | O=C(N1CCC1)N1N=CCC1c1ccccc1 (stereo not drawn) [Compound 1, azetidin-1-yl(5-phenyl-4,5-dihydro-1H-pyrazol-1-yl)methanone] | – | 1 to 10000 nM | 1000 to 10000 nM
6 | < 100 nM | O=C(N1CC(Cc2cccc(F)c2)C1)N1N=CCC1c1ccccc1 (stereo not drawn) [Compound 41, (3-(3-fluorobenzyl)azetidin-1-yl)(5-phenyl-4,5-dihydro-1H-pyrazol-1-yl)methanone] | 1 to 1000 nM | 1 to 100 nM | –
7 | > 1000 nM | O=C(N1CC[C@@H](Oc2ccccc2)C1)N1N=CCC1c1ccccc1 (single isomer, unassigned) [Compound 26B] | 1000 to 10000 nM | > 1000 nM | –
8 | 100 to 1000 nM | O=C(NC1Cc2ccccc2C1)N1N=CCC1c1ccccc1 (stereo not drawn) [Compound 14, N-(2,3-dihydro-H-inden-2-yl)-5-phenyl-4,5-dihydro-1H-pyrazole-1-carboxamide] | 1 to 1000 nM | 1 to 1000 nM | –

Source: patent US12662469B2 (SIRONAX LTD, priority 2018, dated 2026)
